Measured values: patent US20230373934A1, “ANDROGEN RECEPTOR MODULATORS AND METHODS FOR THEIR USE” (ESSA Pharma, Inc., priority 2022, published 2023)
pIC50: −log10 of the molar value.

Legend:
[1] = biological target: T1, androgen receptor (AR) (Homo sapiens, UniProt P10275, T878A); assay: Androgen-induced PSA-luciferase assay, Luciferase Assay A (LNCaP transiently transfected with PSA (6.1 kb)-luciferase reporter); format: cell-based; details: LNCaP cells, 1 h pretreatment, R1881 (1 nM) 24 h, read-out: PSA-Luc IC50 Range
T1 construct: endogenous in cells; host or cells: LNCaP
T1 sequence (P10275 1-920 T878A): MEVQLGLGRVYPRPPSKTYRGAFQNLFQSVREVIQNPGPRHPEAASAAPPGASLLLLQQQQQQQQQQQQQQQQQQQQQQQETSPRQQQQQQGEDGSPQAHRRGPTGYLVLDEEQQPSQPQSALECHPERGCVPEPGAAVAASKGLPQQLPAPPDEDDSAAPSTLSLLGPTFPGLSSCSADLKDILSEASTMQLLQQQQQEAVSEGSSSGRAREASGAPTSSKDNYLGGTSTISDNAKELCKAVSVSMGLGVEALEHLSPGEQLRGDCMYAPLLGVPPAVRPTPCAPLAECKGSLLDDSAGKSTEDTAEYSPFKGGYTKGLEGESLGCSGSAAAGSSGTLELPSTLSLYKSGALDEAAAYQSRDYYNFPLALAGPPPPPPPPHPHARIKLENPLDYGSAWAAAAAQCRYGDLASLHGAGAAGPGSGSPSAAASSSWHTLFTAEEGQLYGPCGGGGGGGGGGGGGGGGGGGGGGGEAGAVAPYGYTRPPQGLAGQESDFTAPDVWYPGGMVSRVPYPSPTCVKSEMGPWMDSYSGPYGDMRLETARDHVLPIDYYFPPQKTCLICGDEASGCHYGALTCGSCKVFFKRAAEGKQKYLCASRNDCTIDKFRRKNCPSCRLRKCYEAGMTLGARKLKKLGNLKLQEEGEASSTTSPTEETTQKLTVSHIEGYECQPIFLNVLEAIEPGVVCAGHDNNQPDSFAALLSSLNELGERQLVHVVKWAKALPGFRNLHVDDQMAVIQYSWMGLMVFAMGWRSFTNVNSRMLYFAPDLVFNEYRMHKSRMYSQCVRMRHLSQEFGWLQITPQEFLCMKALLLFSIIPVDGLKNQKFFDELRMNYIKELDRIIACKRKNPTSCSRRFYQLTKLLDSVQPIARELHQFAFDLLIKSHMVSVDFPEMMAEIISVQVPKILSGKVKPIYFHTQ
Summary of the method: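 LNCaP cells transfected 24 h with PSA (6.1 kb)-luciferase reporter, pretreated 1 h with compound, then stimulated 24 h with R1881 (1 nM). Firefly luminescence in lysates normalized to protein content; IC50 from activity relative to R1881-induced vehicle control.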

[2] = Microsomal stability assay, liver microsome half-life (human); format: in vitro ADME; details: pH 7.4; human liver microsomes 0.5 mg/mL + NADPH, 1 μM compound, 37° C; read-out: Liver microsome + NADPH T½ (min) Human
Excerpt: (§1) Microsomal Stability Assay: Microsomal stability assay is a widely used in vitro model to characterize the metabolic conversion by phase I enzymes, such as cytochrome P450 (CYP) enzymes. Since metabolism is known to be highly variable in different species, microsomal stability assay is commonly run in multiple species. Metabolic stability of testing compound can be evaluated using human, rat, mouse, or other animal liver or intestine microsomes to predict intrinsic clearance.
(§2) The assay was carried out in 96-well microtiter plates at 37° C. Reaction mixtures (25 μL) contained a final concentration of 1 μM test compound, 0.5 mg/mL liver microsomes protein, and 1 mM NADPH and/or 1 mM UDPGA (with alamethicin) in 100 mM potassium phosphate, pH 7.4 buffer with 3 mM MgCl2. The incubation was done with N=1, but duplicate incubation at each time point can be prepared if necessary. At each of the time points (for example, 0, 15, 30, and 60 minutes), 150 μL of quench solution (100% acetonitrile with 0.1% formic acid) with internal standard was transferred to each well. Besides the zero minute controls, mixtures containing the same components except the NADPH can also be prepared as the negative control. Verapamil was included as a positive control to verify assay performance. Plates were sealed, vortexed, and centrifuged at 4° C. for 15 minutes at 4000 rpm. The supernatant is transferred to fresh plates for LC/MS/MS analysis.
(§3) Summarized conditions: [Compound]=1 μM, [LM]=0.5 mg/mL, [NADPH]=1 mM and/or [UDPGA]=1 mM, Buffer=100 mM Potassium Phosphate, pH 7.4 with 3 mM MgCl2, Time=0, 15, 30, and 60 min, and Temperature=37° C.
(§4) All samples were analyzed on LC/MS/MS using an AB Sciex API 4000 instrument, coupled to a Shimadzu LC-20AD LC Pump system. Analytical samples were separated using a Waters Atlantis T3 dC18 reverse phase HPLC column (20 mm×2.1 mm) at a flow rate of 0.5 mL/min. The mobile phase consisted of 0.1% formic acid in water (solvent A) and 0.1% formic acid in 100% acetonitrile (solvent B).
(§5) The extent of metabolism is calculated as the disappearance of the test compound, compared to the 0-min time incubation. Initial rates are calculated for the compound concentration and used to determine half-life (t1/2).

[3] = Microsomal stability assay, liver microsome half-life (rat); format: in vitro ADME; details: pH 7.4; rat liver microsomes 0.5 mg/mL + NADPH, 1 μM compound, 37° C; read-out: Liver microsome + NADPH T½ (min) Rat
Excerpt: as §1, §2, §3, §4, §5

[4] = Microsomal stability assay, liver microsome half-life (mouse); format: in vitro ADME; details: pH 7.4; mouse liver microsomes 0.5 mg/mL + NADPH, 1 μM compound, 37° C; read-out: Liver microsome + NADPH T½ (min) Mouse
Excerpt: as §1, §2, §3, §4, §5

[5] = Microsomal stability assay, liver microsome half-life (dog); format: in vitro ADME; details: pH 7.4; dog liver microsomes 0.5 mg/mL + NADPH, 1 μM compound, 37° C; read-out: Liver microsome + NADPH T½ (min) Dog
Excerpt: as §1, §2, §3, §4, §5

[6] = Microsomal stability assay, liver microsome half-life (monkey); format: in vitro ADME; details: pH 7.4; monkey liver microsomes 0.5 mg/mL + NADPH, 1 μM compound, 37° C; read-out: Liver microsome + NADPH T½ (min) Monkey
Excerpt: as §1, §2, §3, §4, §5

[7] = biological target: T2, androgen receptor (AR) (Homo sapiens, UniProt P10275); assay: Androgen-induced PSA-luciferase assay, Luciferase Assay B (cells stably expressing ARR2PB or PSA-firefly luciferase reporter, 384-well); format: cell-based; details: Luciferase Assay B (Compounds A186-A219 and A221-A245); stable luciferase reporter cells, 1 h pretreatment, R1881 24 h, serum-free; read-out: PSA-Luc IC50 Range
T2 sequence (P10275 1-920 T878A): T1 sequence (P10275 1-920 T878A)
Protocol: Luciferase Assay B: Cells stably expressing probasin promoter (ARR2PB) or human prostate-specific antigen (PSA)-firefly luciferase reporter were plated in poly-D-lysine-coated 384-well plates. 48 h after plating, cells were pretreated with vehicle or compounds for 1 h before adding R1881 under serum-free and phenol red-free conditions and then further incubated for 24 h. R1881 was added only for LNCaP cells. Firefly luciferase activities were determined by EnVision plate reader (Perkinemer) using the Steady-Glo Luciferase Reporter Assay System (Promega). Values were normalized to protein content. GraphPad Prism graphing software was used to calculate IC50 values. Luciferase Assay B was run for Compounds A186-A219 and A221-A245 in Table 2.
Statistical analyses were performed using GraphPad Prism (Version 6.01 for Windows; La Jolla, CA, USA). Comparisons between treatment and control groups were compared using Two-Way ANOVA with post-hoc Dunnett's and Tukey's tests. Differences were considered statistically significant at P values less than 0.05.

Row | SMILES | pIC50 [1] | half-life at 1 μM [2] [min] | half-life at 1 μM [3] [min] | half-life at 1 μM [4] [min] | half-life at 1 μM [5] [min] | half-life at 1 μM [6] [min] | pIC50 [7]
1 | CS(=O)(=O)Nc1cnc2cc(-c3ccc(N(c4cc(Cl)c(OCCCl)c(C#N)c4)C4CC4)cc3)ccc2n1 [Compound A80, N-(6-(4-((3-chloro-4-(2-chloroethoxy)-5-cyanophenyl)(cyclopropyl)amino)phenyl)quinoxalin-2-yl)methanesulfonamide] | > 6.30 | > 120 | > 120 | 96 | > 120 | > 120 | –
2 | CN(c1ccc(-c2ccc3nc(NS(C)(=O)=O)cnc3c2)cc1)c1cc(Cl)c(OCCCl)c(C#N)c1 [Compound A81] | > 6.30 | > 120 | > 120 | > 120 | > 120 | > 120 | –
3 | CCN(c1ccc(-c2ccc3nc(NS(C)(=O)=O)cnc3c2)cc1)c1cc(Cl)c(OCCCl)c(C#N)c1 [Compound A82] | > 6.30 | > 120 | > 120 | > 120 | > 120 | > 120 | –
4 | CS(=O)(=O)Nc1cnc2cc(-c3ccc(Oc4cc(Cl)c(N5CCOCC5)c(C#N)c4)cc3)ccc2n1 [Compound A83] | 5.70 to 6.30 | > 120 | > 120 | > 120 | > 120 | > 120 | –
5 | CS(=O)(=O)N[C@H]1C[C@H](n2cc(-c3ccc(N(CC(F)(F)F)c4cc(Cl)c(OCCCl)c(C#N)c4)cc3)cn2)C1 [Compound A84] | 5.70 to 6.30 | 101 | > 120 | > 120 | > 120 | 100 | –
6 | CS(=O)(=O)NC1CN(c2cnc(-c3ccc(Oc4cc(Cl)c(OCCCl)c(C#N)c4)cc3)cn2)C1 [Compound A94] | 5.70 to 6.30 | > 120 | > 120 | > 120 | > 120 | 117 | –
7 | CS(=O)(=O)Nc1cnc2cc(-c3ccc(Oc4cc(Cl)c(OC5CC5)c(C#N)c4)cc3)ccc2n1 [Compound A97, N-(6-(4-(3-chloro-5-cyano-4-cyclopropoxyphenoxy)phenyl)quinoxalin-2-yl) methanesulfonamide] | 5.70 to 6.30 | > 120 | > 120 | > 120 | > 120 | > 120 | –
8 | CS(=O)(=O)Nc1cnc2cc(-c3ccc(Oc4cc(Cl)c(OCC(F)(F)F)c(C#N)c4)cc3)ccc2n1 [Compound A98] | 5.70 to 6.30 | > 120 | > 120 | > 120 | > 120 | > 120 | –
9 | [2H]C([2H])([2H])N(c1ccc(-c2ccc3nc(NS(C)(=O)=O)cnc3c2)cc1)c1cc(Cl)c(OCCCl)c(C#N)c1 [Compound A145] | 5.70 to 6.30 | > 120 | > 120 | > 120 | > 120 | > 120 | –
10 | CS(=O)(=O)Nc1nc2ccc(-c3ccc(Oc4cc(Cl)c(OCCCl)c(C#N)c4)cc3)cc2cc1F [Compound A157] | 5.70 to 6.30 | > 120 | > 120 | > 120 | > 120 | > 120 | –
11 | COc1c(Cl)cc(N(c2ccc(-c3ccc4nc(NS(C)(=O)=O)cnc4c3)cc2)C2CC2)cc1C#N [Compound A163] | > 6.30 | > 120 | > 120 | > 120 | > 120 | > 120 | –
12 | CN(c1ccc(-c2ccc3nc(NS(C)(=O)=O)cnc3c2)cc1)c1cc(Cl)c(OC2CC2)c(C#N)c1 [Compound A164, N-(6-(4-((3-chloro-5-cyano-4-cyclopropoxyphenyl)(methyl)amino)phenyl)quinoxalin-2-yl)methanesulfonamide] | 5.70 to 6.30 | > 120 | > 120 | > 120 | > 120 | > 120 | –
13 | CS(=O)(=O)Nc1cnc2cc(-c3ccc(N(c4cc(Cl)c(OC5CC5)c(C#N)c4)C4CC4)cc3)ccc2n1 [Compound A177] | 5.70 to 6.30 | > 120 | > 120 | > 120 | > 120 | > 120 | –
14 | CS(=O)(=O)Nc1cnc2cc(-c3ccc(N(CC(F)(F)F)c4cc(Cl)c(OC5CC5)c(C#N)c4)cc3)ccc2n1 [Compound A186, N-(6-(4-((3-chloro-5-cyano-4-cyclopropoxyphenyl) (2,2,2-trifluoroethyl)amino)phenyl)quinoxalin-2-yl)methanesulfonamide] | – | > 120 | > 120 | > 120 | > 120 | > 120 | > 6.30
15 | [2H]C([2H])([2H])N(c1ccc(-c2ccc3nc(NS(C)(=O)=O)cnc3c2)cc1)c1cc(Cl)c(OC2CC2)c(C#N)c1 [Compound A187] | – | > 120 | > 120 | > 120 | > 120 | > 120 | 5.70 to 6.30
